Assay results published in PubChem BioAssay (NCI).
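Each compound was tested at five concentrations against cells in 96-well plates for 48 hours. At the TGI there is no net growth.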

Experiments:
Assay in all cases: NCI-60 cell line screen, 48 h
HCT-116 colon = test system: HCT-116 colon
HCC-2998 colon = test system: HCC-2998 colon
OVCAR-4 ovarian = test system: OVCAR-4 ovarian
U251 CNS = test system: U251 CNS
COLO 205 colon = test system: COLO 205 colon
UACC-257 melanoma = test system: UACC-257 melanoma
NCI-H23 lung = test system: NCI-H23 lung
MDA-MB-435 = test system: MDA-MB-435
LOX IMVI melanoma = test system: LOX IMVI melanoma
A498 renal = test system: A498 renal
TK-10 renal = test system: TK-10 renal
SK-MEL-5 melanoma = test system: SK-MEL-5 melanoma
NCI-H226 lung = test system: NCI-H226 lung
UACC-62 melanoma = test system: UACC-62 melanoma
T-47D breast = test system: T-47D breast
CCRF-CEM leukemia = test system: CCRF-CEM leukemia
SF-539 CNS = test system: SF-539 CNS

SMILES	TGI (HCT-116 colon) [µM]	TGI (HCC-2998 colon) [µM]	TGI (OVCAR-4 ovarian) [µM]	TGI (U251 CNS) [µM]	TGI (COLO 205 colon) [µM]	TGI (UACC-257 melanoma) [µM]	TGI (NCI-H23 lung) [µM]	TGI (MDA-MB-435) [µM]	TGI (LOX IMVI melanoma) [µM]	TGI (A498 renal) [µM]	TGI (TK-10 renal) [µM]	TGI (SK-MEL-5 melanoma) [µM]	TGI (NCI-H226 lung) [µM]	TGI (UACC-62 melanoma) [µM]	TGI (T-47D breast) [µM]	TGI (CCRF-CEM leukemia) [µM]	TGI (SF-539 CNS) [µM]
C=CC(C)(C)C(=C)C(=O)N(C)c1ccccc1I	> 100	> 100	> 100	> 100	> 100	> 100	> 100	> 100	> 100	> 100	> 100	> 100	> 100	> 100	> 100	> 100	
COC(=O)C1CC=C(SC(=O)c2ccccc2)N1C(=O)c1ccccc1 (centres undefined)	> 100	> 100	> 100	> 100	> 100	> 100	> 100	> 100		> 100	> 100	> 100		> 100	> 100		
Cc1nn(C(=O)c2ccncc2)c2c1C(c1ccc(Cl)cc1)SC(N)=N2 (centres undefined)	> 10	> 10	> 10		> 10	> 10	> 10	> 10	> 10		> 10	> 10	> 10	> 10	> 10	> 10	> 10
CCN(CC)c1ccc(C2SCC(=O)N2c2ccc(NC(=O)c3ccc(N4C(=O)CSC4c4ccc(N(CC)CC)cc4)cc3)cc2)cc1 (centres undefined)	> 100	> 100	> 100	> 100	> 100	> 100	> 100	> 100	> 100		> 100	> 100		> 100	> 100	> 100	> 100
CCCCNc1c(CN)cnc2cc(Cl)ccc12	35.9	9.63	40.1	30.4	21.5	26.5	39.2	35	29.9	28.7	30.2	29.3	32.6	29	44.3	18.7	
O=C1c2cc3c(cc2CC12Cc1cc4c(cc1C2=O)CCC4)CCC3	> 100	> 100		> 100	> 100	> 100	> 100	> 100	> 100	> 100	> 100	> 100	> 100	> 100	> 100	> 100	> 100
CC(C)C1OC2(C)OC(=N)C1(C#N)C(C#N)(C#N)C2C (centres undefined)	78.2	30.7		65.7	27.6	> 100	> 100	> 100	41.5	> 100	> 100	26.6	> 100	80.5	33.5	51.4	66
COc1ccc(C(=O)/C=C/c2ccc(OCCSCCCCCCCCCCSCCOc3ccc(/C=C/C(=O)c4ccc(OC)cc4)cc3)cc2)cc1	> 100	> 100	> 100	> 100	> 100	> 100		> 100			> 100	> 100	> 100	> 100	> 100	> 100	> 100
COC(=O)C12OC(C)(C(CC(=O)OC(C)(C)C)C1=O)C1C(=O)N(c3ccccc3)C(=O)C12 (centres undefined)	> 100	> 100	> 100	> 100	> 100	> 100	> 100	> 100	> 100	> 100	> 100	> 100	> 100	> 100	> 100	> 100	
O=C(Cn1cc(F)c(=O)[nH]c1=O)C12CC3CC(CC(C3)C1)C2	> 100	> 100	> 100	> 100	> 100	> 100	> 100	> 100	> 100	> 100	> 100	> 100		> 100	> 100	> 100	> 100
Cc1nc(Nc2ccc(F)cc2)c2sc(=S)n(-c3ccc(F)cc3)c2n1	15	24.7	40.8	27.8	27.5	26.2	16.9	22.7	17	33.4	27.5	27.7	33.5	29.6	19.8		
CC(O)(/C=C/c1ccccc1)P(=O)(O)c1ccccc1 (centres undefined)	> 100	> 100	> 100	> 100	> 100	> 100	> 100	> 100	> 100	> 100	> 100	> 100	> 100	> 100	> 100		> 100
COc1ccc(-c2cc(-c3ccc(Nc4ccnc5cc(Cl)ccc45)cc3)nc(N)c2C#N)cc1	> 100	> 100	> 100	> 100	> 100		> 100	> 100	> 100	> 100	> 100		> 100	> 100	> 100		> 100
COc1ccc(N=Nc2ccc3oc(=O)c(C(=O)Nc4ccccc4)cc3c2)cc1	> 10	> 10	> 10	> 10	> 10	> 10	> 10	> 10	> 10	> 10	> 10	> 10	> 10	> 10	> 10		> 10
